Consider two compounds from patent US20130317214A1, “METHOD FOR PRODUCING MALEATE USING WET CRYSTAL” (KYORIN PHARMACEUTICAL CO., LTD., priority 2010, published 2013).

Structures are written as SMILES.

Data set [1] can be described thus: Stability test of compound (2) (physical properties). It counts as physicochemical. The settings on record: for physical properties when stored under a condition of 30° C.: storage time not given.
A short description of data set [2]: Stability test of compound (2) (powder X-ray diffraction). The settings on record: sealed in a brown bottle, stored at 25° C. for 2 weeks and 4 weeks. The class given is physicochemical. The procedure: A filling section of a plate sample holder made of glass was filled with a sample, and powder x-ray diffraction of the sample was then measured using RINT2200 powder x-ray diffractometer manufactured by Rigaku Corporation.
Tube current: 36 mA Tube voltage: 40 kV Scanning rate: 2°/min wavelength: 1.5405 Å (Kα1), 1.5443 Å (Kα2), 1.3922 Å (Kβ1) Divergence slit: 1° Receiving slit: 0.15 mm Scattering slit: 1° Anticathode: copper Scanning range: 5 to 40°
The wet crystal of the compound (2) (Example 1) and the dried product (Reference Example 1) were each sealed in a brown bottle, and stored at 25° C. for 2 weeks and 4 weeks. After the storage, the powder x-ray diffraction of each sample was measured in accordance with the method of Test Example 1.

As to `CCc1cc(OC)cc2nc(-c3cccnc3N3CC[C@H](N(C)C)C3)oc(=O)c12` [dried product of the compound (2)], the “physical properties on 3 days after the storage at 30° C.” value in data set [1] (sealed in a brown bottle, 3 days) is reported as “changed into a glassy mass”. The “physical properties when stored under a condition of 30° C.” value in data set [1] is “changed into a glassy solid”. In data set [2], the “crystal state by powder x-ray diffraction after storage” value was “complete amorphous form”.
With `CCc1cc(OC)cc2nc(-c3cccnc3N3CC[C@H](N(C)C)C3)oc(=O)c12` [wet crystal of the compound (2)], in data set [1], the “physical properties when stored under a condition of 30° C.” value was “the state of white powder was maintained”. Besides, the “crystal state by powder x-ray diffraction after storage” value in data set [2] is listed as “change in the crystal state of the wet crystal of the compound (2) was not observed”.
